Here are results for eight compounds from patent publication US9365508B2, “Aroyl thiourea derivatives” (University Court of the University of St Andrews, priority 2009, dated 2016).

SMILES strings stand for the structures. Structures can show the parent of a compound that is named as a salt. A value given as a limit tells only on which side of the number the result lay.

The target in one assay is SIRT2 (Homo sapiens (Human), UniProt Q8IXJ6). Put plainly: SIRT2 inhibition assay (Fluor de Lys fluorescence-based assay kit). In kind it is biochemical. The following applies: human recombinant enzyme; for inhibition at 60 µM: read-out: SirT2 (% inhib at 60 μM). As for the experimental part: (§1) SIRT1 and SIRT2 Inhibition Assays
SIRT2, sequence (Q8IXJ6 whole entry): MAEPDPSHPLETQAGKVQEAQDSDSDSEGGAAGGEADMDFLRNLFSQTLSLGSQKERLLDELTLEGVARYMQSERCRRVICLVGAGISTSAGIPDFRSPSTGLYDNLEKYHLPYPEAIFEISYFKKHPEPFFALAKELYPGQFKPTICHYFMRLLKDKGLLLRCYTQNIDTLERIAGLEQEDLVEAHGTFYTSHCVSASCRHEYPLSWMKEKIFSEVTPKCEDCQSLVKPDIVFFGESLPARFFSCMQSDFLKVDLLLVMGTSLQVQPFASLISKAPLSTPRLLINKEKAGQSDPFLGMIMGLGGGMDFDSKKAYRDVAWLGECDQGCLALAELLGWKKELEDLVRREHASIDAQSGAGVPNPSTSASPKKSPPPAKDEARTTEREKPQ
(§2) All compounds were tested for inhibition of SIRT1 and SIRT2 using human recombinant enzymes available in the Fluor de Lys fluorescence-based assay kit (BIOMOL, AK555, AK556). All other required reagents were provided in the kit which was stored at −78° C. Before use, small aliquots of each enzyme (2-3 μL) were prepared, snap frozen in liquid nitrogen and stored at −78° C. Fresh dilutions of compounds were prepared in DMSO and further diluted in assay buffer. NAD^+ (12.5 […] at 4 mM) and Fluor de Lys SIRT1 or SIRT2 (12.5 μL at 100 μM) in assay buffer were added to a white 96 well plate, followed by compound (10 μL) and lastly enzyme (15 μL, 0.07 U/μL or SIRT1 and 0.3 U/μL for SIRT2). After incubation for 1 h at 37° C. a developer solution (50 μL) was added to each reaction. The developer solution contained 38 μL buffer, 10 μL developer and 2 μL nicotinamide (50 mM) per reaction. The plate was then incubated for 45 min at rt and then read using a Spectra Max Gemini fluorimeter with an excitation wavelength of 355 nm and an emission wavelength of 460 nm. SigmaPlot software was used to generate fit curves for raw plots and the equation for each curve was used to calculate IC50 data.

The target in a further assay is SIRT1 (Homo sapiens (Human), UniProt Q96EB6). Put plainly: SIRT1 inhibition assay (Fluor de Lys fluorescence-based assay kit). It is filed as biochemical. The following applies: human recombinant enzyme; for inhibition at 60 µM: read-out: SirT1 (% inhib at 60 μM). The procedure:
as §1, §2

For another assay, the system named is 3T3L1 cells. The assay is described as follows: Adipocyte differentiation assay (ORO red lipid staining). The following applies: 10 μM compound, 3T3L1 cells in the 8 media, in duplicate, versus controls with and without DMSO. It is filed as cell-based, mouse. The procedure:
Adipocyte Differentiation Assay
3T3L1 cells (i.e. mouse fibroblasts that differentiate into adipocytes in so-called differentiation medium) were treated in a low glucose differentiation medium (as described by F Wang and Q Tong (Molecular Biology of the Cell, 20, 2009, 801-808) with either (i) a normal growth medium (DMEM), (ii) a low glucose differentiation medium containing ciglitazone, d-biotin, dexamethasone, IBMX, insulin and L-thyroxine, or a (iii) a low glucose differentiation medium as per (ii) but lacking one of the components (i.e 6 different media each comprising five components selected from ciglitazone, d-biotin, dexamethasone, IBMX, insulin and L-thyroxine). Cells were stained with ORO red to detect lipid.
The same differentiation assays with each of the 8 differentiation media were then repeated but with addition of DMSO solvent and also 10 μM of compound D3 (5-dimethylamino-pentanoic acid {4-[3-(3,5-dichloro-4-methoxy-benzoyl)-thioureido]-phenyl}-amide hydrochloride) in duplicate.

SIRT1, sequence (Q96EB6 whole entry): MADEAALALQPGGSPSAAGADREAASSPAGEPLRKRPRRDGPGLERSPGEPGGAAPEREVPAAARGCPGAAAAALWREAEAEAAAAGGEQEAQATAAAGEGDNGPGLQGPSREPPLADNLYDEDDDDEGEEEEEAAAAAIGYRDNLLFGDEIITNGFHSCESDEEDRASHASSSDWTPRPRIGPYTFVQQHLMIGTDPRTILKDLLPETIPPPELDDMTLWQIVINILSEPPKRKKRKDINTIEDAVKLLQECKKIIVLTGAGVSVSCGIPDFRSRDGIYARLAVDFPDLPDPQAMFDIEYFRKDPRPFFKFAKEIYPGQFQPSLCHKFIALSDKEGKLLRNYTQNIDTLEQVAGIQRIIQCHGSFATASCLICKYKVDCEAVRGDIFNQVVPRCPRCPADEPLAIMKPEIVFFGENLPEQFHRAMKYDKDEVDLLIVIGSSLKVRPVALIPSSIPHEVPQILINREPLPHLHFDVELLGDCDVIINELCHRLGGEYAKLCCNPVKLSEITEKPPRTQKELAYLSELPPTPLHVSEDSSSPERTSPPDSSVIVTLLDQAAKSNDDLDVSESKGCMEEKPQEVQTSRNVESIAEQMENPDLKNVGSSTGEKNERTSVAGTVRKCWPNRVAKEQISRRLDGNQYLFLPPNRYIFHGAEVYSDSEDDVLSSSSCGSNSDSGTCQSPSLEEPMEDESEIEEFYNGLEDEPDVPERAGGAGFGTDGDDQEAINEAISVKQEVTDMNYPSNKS

As to `CN(C)CCCCC(=O)Nc1ccc(NC(=S)NC(=O)c2ccccc2)cc1` [Compound B4, 5-Dimethylamino-pentanoic acid [4-(3-benzoyl-thioureido)-phenyl]-amide hydrochloride], the inhibition at 60 µM came out at 43.7% on SIRT2 (60 μM compound) and 3.5% on SIRT1 (60 μM compound).

As a reminder, the IC50 is the midpoint of a concentration-inhibition curve. Consider `CN(C)CCCCC(=O)Nc1ccc(NC(=S)NC(=O)c2ccc(Br)cc2)cc1` [Compound B5, 5-Dimethylamino-pentanoic acid {4-[3-(4-bromo-benzoyl)-thioureido]-phenyl}-amide hydrochloride], for which the inhibition at 60 µM on SIRT2 (60 μM compound) came out at 47.7%; at SIRT1 (60 μM compound), 13.5%. Moreover, the IC50 was 39.5 ± 9.7 µM on SIRT2 and 62.1 ± 2.3 µM at SIRT1.

For `CN(C)CCCCC(=O)Nc1ccc(NC(=S)NC(=O)c2ccc(C(F)(F)F)cc2)cc1.Cl` [Compound B6], at SIRT2 (60 μM compound), the “SirT2 (% inhib at 60 μM)” value is reported as 17.1%. Besides, the “SirT1 (% inhib at 60 μM)” value at SIRT1 (60 μM compound) came to 10.9%.

Regarding `Cc1ccc(C(=O)NC(=S)Nc2ccc(NC(=O)CCCCN(C)C)cc2)cc1C` [Compound C4, 5-Dimethylamino-pentanoic acid {4-[3-(3,4-dimethyl-benzoyl)-thioureido]-phenyl}-amide hydrochloride], the inhibition at 60 µM on SIRT2 (60 μM compound) was found to be 65.1%; on SIRT1 (60 μM compound) it was 27.5%.

For `Cc1cc(C(=O)NC(=S)Nc2ccc(NC(=O)CCCCN(C)C)cc2)ccc1Br` [Compound C5, 5-Dimethylamino-pentanoic acid {4-[3-(4-bromo-3-methyl-benzoyl)-thioureido]-phenyl}-amide hydrochloride], the results for the inhibition at 60 µM at SIRT2 (60 μM compound) and at SIRT1 (60 μM compound) were 77.1% and 24%, respectively. For the same compound, the IC50 at SIRT2 was 34.3 ± 7.2 µM; on SIRT1 it was 69.6 ± 0.6 µM.

Take `COc1ccc(C(=O)NC(=S)Nc2ccc(NC(=O)CCCCN(C)C)cc2)cc1C(F)(F)F` [Compound C6, 5-Dimethylamino-pentanoic acid {4-[3-(4-methoxy-3-trifluoromethyl-benzoyl)-thioureido]-phenyl}-amide hydrochloride]: the inhibition at 60 µM at SIRT2 (60 μM compound) turned out to be 29.5%; at SIRT1 (60 μM compound), 58.3%. Moreover, the IC50 on SIRT2 was above 90 µM; on SIRT1 it was 51.7 ± 6.9 µM.

Turning to `CN(C)CCCCC(=O)Nc1ccc(NC(=S)NC(=O)c2cc(F)c(F)c(F)c2)cc1` [Compound D1, 5-Dimethylamino-pentanoic acid {4-[3-(3,4,5-trifluoro-benzoyl)-thioureido]-phenyl}-amide hydrochloride], the inhibition at 60 µM at SIRT2 (60 μM compound) is 46%; at SIRT1 (60 μM compound), 7.5%. Besides, the results for the IC50 on SIRT2 and at SIRT1 were 52.5 ± 12.3 µM and above 90 µM, respectively.

As for `COc1c(Cl)cc(C(=O)NC(=S)Nc2ccc(NC(=O)CCCCN(C)C)cc2)cc1Cl.Cl` [Compound D3, 5-Dimethylamino-pentanoic acid {4-[3-(3,5-dichloro-4-methoxy-benzoyl)-thioureido]-phenyl}-amide hydrochloride], in the assay with 3T3L1 cells, the “oro red staining (adipogenesis)” value is recorded as “increases the oro red staining”. In addition, the inhibition at 60 µM came to 80.3% at SIRT2 (60 μM compound) and 35% on SIRT1 (60 μM compound). For the same compound, the IC50 on SIRT2 came to 10.7 ± 1.6 µM; at SIRT1, 62.5 ± 3.6 µM.
